From US12667598B2, “Lactobacillus paracasei ATG-EI strain or composition comprising same for preventing or treating respiratory disease” (priority 2021, dated 2026)

Key:
[1] = test system: PM10D-induced airway inflammation model; assay: FACS analysis of immune cells in bronchoalveolar lavage fluid (BALF); assay type: in vivo, Balb/c mice; conditions: BAL, ATG-E1 4×10^9 CFU/mouse, Dexa 3 mg/kg, orally daily for 10 days
Protocol: (§1) There were 8 Balb/c mice (male, 8 weeks old) per group, and all groups except a normal group were injected with a fine dust mixture using the Intra-Nazal-Trachea (INT) injection method described in literatures. The fine dust mixture contained diesel exhaust particles (DEP) (PM10 (Sigma)) and 1% (final concentration) of alum. The fine dust mixture was directly injected into the airways and noses of the experimental animals on days 4, 7, and 10 of the experiment. (Lim et al., Free Radic Biol Med. 25 (6), 635-644 (1998), Shin et al., Korean J. Mediclinal Crop Sci 27 (3), 218-231 (2019)). […] An autopsy was performed on the 11th day after the start of the experiment, and bronchoalveloar lavage fluid (BALF) and lung tissue were collected.
Immune cell profiles (lymphocytes, neutrophils, macrophages, T cell subtypes, Gr-1^+CD11b^+, etc.) were measured by fluorescence-activated cell sorting (FACS) analysis of bronchoalveolar lavage fluid isolated from each individual after the end of the experiment in Example 3-1.

[2] = test system: PM10D-induced airway inflammation model; assay: FACS analysis of immune cells in cells isolated from lung tissue; assay type: in vivo, Balb/c mice; conditions: ATG-E1 4×10^9 CFU/mouse, Dexa 3 mg/kg, orally daily for 10 days
Protocol: as §1
Immune cell profiles (lymphocytes, neutrophils, macrophages, T cell subtypes, Gr-1^+CD11b^+, etc.) were measured by fluorescence-activated cell sorting (FACS) analysis of […] lung tissue of each individual after the end of the experiment in Example 3-1.

C[C@@H]1C[C@H]2[C@@H]3CCC4=CC(=O)C=C[C@]4(C)[C@@]3(F)[C@@H](O)C[C@]2(C)[C@@]1(O)C(=O)CO [Dexa, dexamethasone]
CD4^+ (Absolute No.) ([1]; NC 0.07, CTL 5.26): 3.43 ± 0.58 ×10^7 cells
Lymphocytes (Absolute No.) ([1]; NC 0.08, CTL 0.82): 0.96 ± 0.53 ×10^7 cells
CD4^+CD69^+ (Absolute No.) ([1]; NC 0.08, CTL 1.73): 1.40 ± 0.19 ×10^7 cells
CD8^+ (Absolute No.) ([1]; NC 0.14, CTL 3.72): 2.80 ± 0.71 ×10^7 cells
Gr-1^+CD11b^+ (Absolute No.) ([1]; NC 0.34, CTL 1.62): 1.38 ± 0.12 ×10^7 cells
CD62L^−CD44^+high (Absolute No.) ([1]; NC 0.99, CTL 6.40): 5.95 ± 0.85 ×10^7 cells
Macrophage (Absolute No.) ([1]; NC 1.18, CTL 1.82): 2.29 ± 0.28 ×10^7 cells
Neutrophils (Absolute No.) ([1]; NC 3.59, CTL 15.09): 15.01 ± 2.14 ×10^7 cells
Gr-1^+CD11b^+ (Absolute No.) ([2]; NC 0.17, CTL 1.07): 0.60 ± 0.08 ×10^7cells
CD4^+CD69^+ (Absolute No.) ([2]; NC 0.20, CTL 3.01): 0.29 ± 0.07 ×10^7 cells
CD21/35 + B220^+ (Absolute No.) ([2]; NC 0.27, CTL 3.40): 1.35 ± 0.32 ×10^7 cells
CD62L^−CD44^+high (Absolute No.) ([2]; NC 0.35, CTL 2.53): 1.27 ± 0.15 ×10^7 cells
CD8^+ (Absolute No.) ([2]; NC 1.11, CTL 3.46): 1.92 ± 0.18 ×10^7 cells
Eosinophils (Absolute No.) ([2]; NC 1.56, CTL 6.87): 3.41 ± 1.06 ×10^7 cells
CD4^+ (Absolute No.) ([2]; NC 1.97, CTL 6.13): 3.32 ± 0.42 ×10^7cells
Lymphocytes (Absolute No.) ([2]; NC 2.60, CTL 3.17): 9.34 ± 6.56 ×10^7 cells
Neutrophils (Absolute No.) ([2]; NC 3.03, CTL 12.04): 3.41 ± 0.83 ×10^7 cells
